Assay results published in the NIST ThermoML archive (doi:10.1016/j.jct.2018.10.023).

Assay: wn = mass fraction of the nth substance listed
Details: 101 kPa, Liquid, Digital holographic interferometer

CCC(C)CO (centres undefined) [2-methyl-1-butanol] + CCCCCCC
binary diffusion coefficient [m2/s]
Details | w1 = 0.05 | w1 = 0.15 | w1 = 0.25 | w1 = 0.35 | w1 = 0.45 | w1 = 0.55 | w1 = 0.65 | w1 = 0.75 | w1 = 0.85 | w1 = 0.95
288.15 K | 1.02e-09 | 8.91e-10 | 7.99e-10 | 6.91e-10 | 6.03e-10 | 5.26e-10 | 4.81e-10 | 4.52e-10 | 4.61e-10 | 4.83e-10
298.15 K | 1.24e-09 | 1.11e-09 | 1.01e-09 | 9.24e-10 | 8.43e-10 | 7.55e-10 | 7.02e-10 | 6.8e-10 | 6.9e-10 | 7.04e-10
308.15 K | 1.49e-09 | 1.34e-09 | 1.24e-09 | 1.15e-09 | 1.08e-09 | 9.81e-10 | 9.31e-10 | 9.25e-10 | 9.36e-10 | 9.41e-10
318.15 K | 1.73e-09 | 1.58e-09 | 1.5e-09 | 1.4e-09 | 1.33e-09 | 1.24e-09 | 1.17e-09 | 1.16e-09 | 1.18e-09 | 1.19e-09

CC(C)CCO [3-methylbutan-1-ol] + CCCCCCC
binary diffusion coefficient [m2/s]
Details | w1 = 0.05 | w1 = 0.15 | w1 = 0.25 | w1 = 0.35 | w1 = 0.45 | w1 = 0.55 | w1 = 0.65 | w1 = 0.75 | w1 = 0.85 | w1 = 0.95
288.15 K | 1.74e-09 | 1.25e-09 | 9.07e-10 | 6.95e-10 | 6.1e-10 | 5.7e-10 | 6.18e-10 | 6.65e-10 | 7.11e-10 | 7.46e-10
298.15 K | 1.99e-09 | 1.52e-09 | 1.17e-09 | 9.75e-10 | 8.69e-10 | 8.42e-10 | 8.91e-10 | 9.46e-10 | 9.85e-10 | 1.01e-09
308.15 K | 2.28e-09 | 1.83e-09 | 1.44e-09 | 1.27e-09 | 1.15e-09 | 1.13e-09 | 1.17e-09 | 1.22e-09 | 1.29e-09 | 1.32e-09
318.15 K | 2.54e-09 | 2.09e-09 | 1.75e-09 | 1.55e-09 | 1.43e-09 | 1.4e-09 | 1.46e-09 | 1.52e-09 | 1.56e-09 | 1.58e-09

[Cl-].[Li+] [lithium chloride] + O
298.15 K
Details | binary diffusion coefficient [m2/s]
w1 = 0.011 | 1.31e-09
w1 = 0.027 | 1.23e-09

[Cl-].[K+] [potassium chloride] + O
Details | binary diffusion coefficient [m2/s]
298.15 K, w1 = 0.025 | 1.85e-09

[Cl-].[Na+] [sodium chloride] + O
Details | binary diffusion coefficient [m2/s]
298.15 K, w1 = 0.018 | 1.47e-09
